Data taken from the supplement of paper PMC9265050, “Inhibition of RNA Binding in SND1 Increases the Levels of miR-1-3p and Sensitizes Cancer Cells to Navitoclax” (Cancers, 2022).

System: SW480
Assay: drug sensitivity score (DSS, integrated dose-response area); higher = more sensitive (stronger viability reduction); extreme values may be limits of the assay
How it was run: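 Viability of induced SW480 cells carrying control or SND1-targeting shRNA was read by CellTiter-Glo 72 h after plating at 1000 cells per well onto 384-well plates holding 525 small-molecule inhibitors at five concentrations. Induction used 0.1 µg/mL doxycycline for 7 days. Each drug sensitivity score integrates the area under a fitted non-linear dose–response model.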

[1] = shRNA: SND1 shRNA1 (SND1 silenced)
[2] = shRNA: SND1 shRNA2 (SND1 silenced)
[3] = shRNA: control shRNA (non-targeting)

SMILES: Cn1cc(C2=C(c3cn(C4CCN(Cc5ccccn5)CC4)c4ccccc34)C(=O)NC2=O)c2ccccc21 [Enzastaurin]
- drug sensitivity score [1]: 4.1 DSS
- drug sensitivity score [2]: 0 DSS
- drug sensitivity score [3]: 1.4 DSS

SMILES: O=C(O)c1ccc(Nc2ncc3c(n2)-c2ccc(Cl)cc2C(c2c(F)cccc2F)=NC3)cc1 [MLN-8054]
- drug sensitivity score [1]: 6.3 DSS
- drug sensitivity score [3]: 6.5 DSS

SMILES: O=C(CCBr)N1CCN(C(=O)CCBr)CC1 [Pipobroman]
- drug sensitivity score [1]: 0.1 DSS
- drug sensitivity score [2]: 1.5 DSS
- drug sensitivity score [3]: 0.1 DSS

SMILES: CNC(=O)c1ccc(-c2cnc3ncc(Cc4ccc5ncccc5c4)n3n2)cc1F [NVP-INC280]
- drug sensitivity score [1]: 0 DSS
- drug sensitivity score [2]: 5.7 DSS
- drug sensitivity score [3]: 5.8 DSS

SMILES: CO[C@H]1C[C@@H]2CC[C@@H](C)[C@@](O)(O2)C(=O)C(=O)N2CCCC[C@H]2C(=O)O[C@H]([C@H](C)C[C@@H]2CC[C@@H](OC(=O)C(C)(CO)CO)[C@H](OC)C2)CC(=O)[C@H](C)/C=C(\C)[C@@H](O)[C@@H](OC)C(=O)[C@H](C)C[C@H](C)/C=C/C=C/C=C/1C [Temsirolimus]
- drug sensitivity score [1]: 11.9 DSS
- drug sensitivity score [3]: 9.5 DSS

SMILES: Cc1cccc(-c2[nH]c(CNc3ccccc3F)nc2-c2ccc3ncnn3c2)n1 [TEW-7197]
- drug sensitivity score [1]: 0 DSS
- drug sensitivity score [2]: 0.6 DSS
- drug sensitivity score [3]: 0.6 DSS

SMILES: CC(C)(C)c1nc(-c2cccc(NS(=O)(=O)c3c(F)cccc3F)c2F)c(-c2ccnc(N)n2)s1 [Dabrafenib]
- drug sensitivity score [1]: 0 DSS
- drug sensitivity score [3]: 0 DSS

SMILES: CC(C)C[C@H](NC(=O)[C@@H](COC(C)(C)C)NC(=O)[C@H](Cc1ccc(O)cc1)NC(=O)[C@H](CO)NC(=O)[C@H](Cc1c[nH]c2ccccc12)NC(=O)[C@H](Cc1cnc[nH]1)NC(=O)[C@@H]1CCC(=O)N1)C(=O)N[C@@H](CCCNC(=N)N)C(=O)N1CCC[C@H]1C(=O)NNC(N)=O [Goserelin]
- drug sensitivity score [1]: 0 DSS
- drug sensitivity score [2]: 0 DSS
- drug sensitivity score [3]: 0 DSS

SMILES: Cc1ccc(C(=O)Nc2ccc(CN3CCN(C)CC3)c(C(F)(F)F)c2)cc1C#Cc1cnc2cccnn12 [Ponatinib]
- drug sensitivity score [1]: 5.9 DSS
- drug sensitivity score [2]: 4.8 DSS
- drug sensitivity score [3]: 4.4 DSS

SMILES: COCC[n+]1c2c(n(Cc3cnccn3)c1C)C(=O)c1ccccc1C2=O [YM155]
- drug sensitivity score [1]: 15.5 DSS
- drug sensitivity score [2]: 8.8 DSS
- drug sensitivity score [3]: 21.4 DSS

SMILES: O=C(O)C(=O)O.[NH-][C@@H]1CCCC[C@H]1[NH-].[Pt+2] [Oxaliplatin]
- drug sensitivity score [1]: 14 DSS
- drug sensitivity score [3]: 16.7 DSS

SMILES: CCCCC(=O)OCC(=O)[C@]1(O)Cc2c(O)c3c(c(O)c2[C@@H](O[C@H]2C[C@H](NC(=O)C(F)(F)F)[C@H](O)[C@H](C)O2)C1)C(=O)c1c(OC)cccc1C3=O [Valrubicin]
- drug sensitivity score [1]: 8.7 DSS
- drug sensitivity score [2]: 7.8 DSS
- drug sensitivity score [3]: 8.2 DSS

SMILES: CNC(=O)c1ccc(N2C(=S)N(c3ccc(C#N)c(C(F)(F)F)c3)C(=O)C2(C)C)cc1F [Enzalutamide]
- drug sensitivity score [1]: 0 DSS
- drug sensitivity score [2]: 1.3 DSS
- drug sensitivity score [3]: 0 DSS

SMILES: CC(C)c1c(C(=O)Nc2ccccc2)c(-c2ccccc2)c(-c2ccc(F)cc2)n1CC[C@@H](O)C[C@@H](O)CC(=O)O [Atorvastatin]
- drug sensitivity score [1]: 4.9 DSS
- drug sensitivity score [3]: 7.6 DSS

SMILES: CC1(C)NC(=O)N(c2ccc([N+](=O)[O-])c(C(F)(F)F)c2)C1=O [Nilutamide]
- drug sensitivity score [1]: 0 DSS
- drug sensitivity score [2]: 0 DSS
- drug sensitivity score [3]: 0 DSS

SMILES: N#Cc1ccc(COC[C@H]2O[C@@H](n3c(NCc4ccc(Cl)c(Cl)c4)nc4c(N)ncnc43)[C@H](O)[C@@H]2O)cc1
- drug sensitivity score [1]: 0 DSS
- drug sensitivity score [2]: 0 DSS
- drug sensitivity score [3]: 0.1 DSS

SMILES: Nc1nc2[nH]cc(CCc3ccc(C(=O)N[C@@H](CCC(=O)O)C(=O)O)cc3)c2c(=O)[nH]1 [Pemetrexed]
- drug sensitivity score [1]: 9.9 DSS
- drug sensitivity score [3]: 6.5 DSS

SMILES: Nc1nc(F)nc2c1ncn2[C@@H]1O[C@H](CO)[C@@H](O)[C@@H]1O [Fludarabine]
- drug sensitivity score [1]: 1.8 DSS
- drug sensitivity score [2]: 3.3 DSS
- drug sensitivity score [3]: 4.7 DSS

SMILES: COc1ncc(-c2ccc3nccc(-c4ccnnc4)c3c2)cc1NS(=O)(=O)c1ccc(F)cc1F [Omipalisib]
- drug sensitivity score [1]: 13.7 DSS
- drug sensitivity score [2]: 12.4 DSS
- drug sensitivity score [3]: 9.7 DSS

SMILES: O=C(Nc1c[nH]nc1-c1nc2ccc(CN3CCOCC3)cc2[nH]1)NC1CC1 [AT9283]
- drug sensitivity score [1]: 3.6 DSS
- drug sensitivity score [2]: 0 DSS
- drug sensitivity score [3]: 0.6 DSS

SMILES: S=P(N1CC1)(N1CC1)N1CC1 [Thio-TEPA]
- drug sensitivity score [1]: 0 DSS
- drug sensitivity score [2]: 0 DSS
- drug sensitivity score [3]: 0 DSS

SMILES: N#Cc1ccc2[nH]c(O)c(-c3ccc(CN4CCOCC4)cn3)c2c1 [AZD-1080]
- drug sensitivity score [1]: 1.3 DSS
- drug sensitivity score [3]: 1.1 DSS

SMILES: Nc1ccn([C@@H]2O[C@H](CO)[C@@H](O)C2(F)F)c(=O)n1 [Gemcitabine]
- drug sensitivity score [1]: 15.8 DSS
- drug sensitivity score [2]: 6.1 DSS
- drug sensitivity score [3]: 13.4 DSS

SMILES: COc1cc(NS(C)(=O)=O)ccc1Nc1c2ccccc2nc2ccccc12 [Amsacrine]
- drug sensitivity score [1]: 8.6 DSS
- drug sensitivity score [2]: 3.7 DSS
- drug sensitivity score [3]: 7 DSS
